Source: PMC9944328 (Nature Communications, 2023)
“And” between values parts separate entries of the source, which are not always exact repeats. Identical values can stand only once.

Target: SSTR2 (Homo sapiens, UniProt P30874)
Test: SSTRs Gi-mediated cAMP inhibition, GloSensor, HEK293, 5 μM forskolin, 15 min room temperature (SSTR2 wild-type);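 on Bottom (best-fit value): normalized to the maximal wild-type response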;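 on Bottom (best-fit): normalized to the maximal wild-type response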;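 on Span (best-fit value), cAMP inhibition: normalized to the maximal wild-type response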;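 on Span (best-fit value): normalized to the maximal wild-type response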;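 on Span (best-fit): normalized to the maximal wild-type response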;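 on Span: normalized to the maximal wild-type response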;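 on Top (best-fit): normalized to the maximal wild-type response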
Format: cell-based
Design: Best-fit Top, cAMP inhibition / Span, cAMP inhibition / Best-fit Bottom / Best-fit Top / Best-fit Span / Bottom / Span (best-fit value), cAMP inhibition / Top (best-fit value), cAMP inhibition: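 normalized to the maximal wild-type response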
Conditions: for Span / Top: best-fit, runs 1-3
Experimental: The levels of the intracellular 3′, 5′-cyclic AMP (cAMP) were measured by the GloSensor cAMP assay (Promega) as described in the previous studies[28],[41] which has been widely used. The human full-length SSTRs and mutants were cloned into the pcDNA3.1+ vector with a HA signal sequence followed by a Flag tag at the N-terminus. HEK293 cells (ATCC, CRL-1573) were seeded into 6-well microplates at a density of 1.0 × 10^6 cells/well and cultured for 24 h at 37 °C with 5% CO2. Cells were then co-transfected with SSTR wild-type or mutants and GloSensor plasmids. After 24 h of transfection, the cells were dissociated with TrypLE™ Express Enzyme (1X) (Thermo Fisher Scientific) and collected by centrifugation at 500 × g for 5 min. Then the collected cells were suspended in Hank’s balanced salt solution [HBSS (Thermo Fisher Scientific)] supplemented with […] (YEASEN), and then the suspension cells were seeded into 96-well plates with 90 μl/well. After incubating at room temperature for 40 min, 5 μM forskolin and ligands diluted in HBSS were added to each well and the plates were incubated at room temperature for 15 min. […] were measured using the Synergy H1 microplate reader (BioTek) and the data presented are means of at least three independent experiments.

[1] = WT-1 (run 1 of each mutant's batch)

Chain of SSTR2 (P30874 whole entry): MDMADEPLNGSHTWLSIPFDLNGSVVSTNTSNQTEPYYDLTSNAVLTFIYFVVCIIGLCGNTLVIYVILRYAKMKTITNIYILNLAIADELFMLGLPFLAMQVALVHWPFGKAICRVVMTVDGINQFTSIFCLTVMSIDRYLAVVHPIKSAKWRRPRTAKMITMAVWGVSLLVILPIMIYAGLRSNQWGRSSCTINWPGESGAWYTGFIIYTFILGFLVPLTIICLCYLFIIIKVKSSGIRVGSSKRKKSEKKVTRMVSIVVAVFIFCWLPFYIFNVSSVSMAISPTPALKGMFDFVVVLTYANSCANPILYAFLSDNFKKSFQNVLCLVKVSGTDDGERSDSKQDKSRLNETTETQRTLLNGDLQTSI

N#Cc1cccc(-c2ccc3ncc(-c4cc(F)cc(F)c4)c(N4CCC(N)CC4)c3c2)c1O [paltusotine]
EC50 (EC50, Gi signaling, SSTR2 WT, n=6): 1.88 ± 3.15 nM
EC50 (EC50, WT-1, run paired with D295F): 0.307 nM
EC50 (EC50, WT-1, run paired with F294Y): 0.307 nM
EC50 (EC50, WT-1, run paired with I195M): 1.09 nM
EC50 (EC50, WT-1, run paired with T194H): 1.16 nM
EC50 (EC50, WT-1, run paired with V103N): 2.1 nM
EC50 (EC50, WT-1, run paired with Y205R): 0.537 nM
EC50 (EC50, WT-2, run paired with D295F): 0.501 nM
EC50 (EC50, WT-2, run paired with F294Y): 0.501 nM
EC50 (EC50, WT-2, run paired with I195M): 2.02 nM
EC50 (EC50, WT-2, run paired with T194H): 1.6 nM
EC50 (EC50, WT-2, run paired with V103N): 1.35 nM
EC50 (EC50, WT-2, run paired with Y205R): 0.536 nM
EC50 (EC50, WT-3, run paired with D295F): 1.09 nM
EC50 (EC50, WT-3, run paired with F294Y): 1.16 nM
EC50 (EC50, WT-3, run paired with T194H): 1.35 nM
EC50 (EC50, WT-3, run paired with V103N): 1.08 nM
EC50 (EC50, WT-3, run paired with Y205R): 2.1 nM
EC50 (EC50, cAMP inhibition best-fit, D122A set, WT-1): 2.35 nM
EC50 (EC50, cAMP inhibition best-fit, D122A set, WT-2): 2.66 nM
EC50 (EC50, cAMP inhibition best-fit, D122A set, WT-3): 0.501 nM
EC50 (EC50, cAMP inhibition best-fit, F127A set, WT-1): 1.55 nM
EC50 (EC50, cAMP inhibition best-fit, F127A set, WT-2): 1.16 nM
EC50 (EC50, cAMP inhibition best-fit, F127A set, WT-3): 0.298 nM
EC50 (EC50, cAMP inhibition best-fit, I130A set, WT-1): 0.295 nM
EC50 (EC50, cAMP inhibition best-fit, I130A set, WT-2): 0.321 nM
EC50 (EC50, cAMP inhibition best-fit, I130A set, WT-3): 1.13 nM
EC50 (EC50, cAMP inhibition best-fit, Q102A set, WT-2): 1.19 nM
EC50 (EC50, cAMP inhibition best-fit, Q102A set, WT-3): 1 nM
EC50 (EC50, cAMP inhibition best-fit, Q126A set, WT-1): 0.777 nM
EC50 (EC50, cAMP inhibition best-fit, Q126A set, WT-2): 1.58 nM
EC50 (EC50, cAMP inhibition best-fit, Q126A set, WT-3): 0.845 nM
EC50 (EC50, cAMP inhibition best-fit, V103A set, WT-1): 1.58 nM
EC50 (EC50, cAMP inhibition best-fit, V103A set, WT-2): 0.605 nM
EC50 (EC50, cAMP inhibition best-fit, V103A set, WT-3): 1.19 nM
EC50 (EC50, subtype selectivity series, Suppl. Tables 4/5, SSTR2-WT, n=6): 2.08 ± 1.39 nM
Bottom (best-fit value) (F208A panel, WT-1 (run 1)): -1.411
LogEC50 (best-fit value) (F208A panel, WT-1 (run 1)): -9.3
Span (best-fit value) (F208A panel, WT-1 (run 1)): 105.2
Top (best-fit value) (F208A panel, WT-1 (run 1)): 103.8
Bottom (best-fit value) (F208A panel, WT-2 (run 2)): 4.431
LogEC50 (best-fit value) (F208A panel, WT-2 (run 2)): -8.26
Span (best-fit value) (F208A panel, WT-2 (run 2)): 92.56
Top (best-fit value) (F208A panel, WT-2 (run 2)): 96.99
Bottom (best-fit value) (F208A panel, WT-3 (run 3)): 0.6589
LogEC50 (best-fit value) (F208A panel, WT-3 (run 3)): -8.524
Span (best-fit value) (F208A panel, WT-3 (run 3)): 92.36
Top (best-fit value) (F208A panel, WT-3 (run 3)): 93.02
Bottom (best-fit value) (F265A panel, WT-1 (run 1)): -3.016
LogEC50 (best-fit value) (F265A panel, WT-1 (run 1)): -8.949
Span (best-fit value) (F265A panel, WT-1 (run 1)): 106.8
Top (best-fit value) (F265A panel, WT-1 (run 1)): 103.7
Bottom (best-fit value) (F265A panel, WT-2 (run 2)): -3.466
LogEC50 (best-fit value) (F265A panel, WT-2 (run 2)): -9.53
Span (best-fit value) (F265A panel, WT-2 (run 2)): 116.5
Top (best-fit value) (F265A panel, WT-2 (run 2)): 113
Bottom (best-fit value) (F265A panel, WT-3 (run 3)): -6.932
LogEC50 (best-fit value) (F265A panel, WT-3 (run 3)): -9.494
Span (best-fit value) (F265A panel, WT-3 (run 3)): 126.2
Top (best-fit value) (F265A panel, WT-3 (run 3)): 119.3
Bottom (best-fit value) (F272A panel, WT-1 (run 1)): -5.769
Top (best-fit value) (F272A panel, WT-1 (run 1)): 108
Bottom (best-fit value) (F272A panel, WT-2 (run 2)): -4.038
Top (best-fit value) (F272A panel, WT-2 (run 2)): 107.8
Bottom (best-fit value) (F272A panel, WT-3 (run 3)): -0.5501
Top (best-fit value) (F272A panel, WT-3 (run 3)): 106.1
Fold of WT (Gi signaling EC50, SSTR2 WT): 1
Emax (HEK293): 100%
Bottom (best-fit value) (P220A panel, WT-1 (run 1)): -3.466
LogEC50 (best-fit value) (P220A panel, WT-1 (run 1)): -9.53
Span (best-fit value) (P220A panel, WT-1 (run 1)): 116.5
Top (best-fit value) (P220A panel, WT-1 (run 1)): 113
Bottom (best-fit value) (P220A panel, WT-2 (run 2)): -6.932
LogEC50 (best-fit value) (P220A panel, WT-2 (run 2)): -9.494
Span (best-fit value) (P220A panel, WT-2 (run 2)): 126.2
Top (best-fit value) (P220A panel, WT-2 (run 2)): 119.3
Bottom (best-fit value) (P220A panel, WT-3 (run 3)): -3.016
LogEC50 (best-fit value) (P220A panel, WT-3 (run 3)): -8.949
Span (best-fit value) (P220A panel, WT-3 (run 3)): 106.8
Top (best-fit value) (P220A panel, WT-3 (run 3)): 103.7
Activation potency level (SSTR2, Fig. 1): nanomolar level
Fold of WT (Suppl. Tables 4/5, SSTR2-WT): 1.00
Bottom (best-fit value) (W269A panel, WT-1 (run 1)): -3.016
LogEC50 (best-fit value) (W269A panel, WT-1 (run 1)): -8.949
Span (best-fit value) (W269A panel, WT-1 (run 1)): 106.8
Top (best-fit value) (W269A panel, WT-1 (run 1)): 103.7
Bottom (best-fit value) (W269A panel, WT-2 (run 2)): -3.466
LogEC50 (best-fit value) (W269A panel, WT-2 (run 2)): -9.53
Span (best-fit value) (W269A panel, WT-2 (run 2)): 116.5
Top (best-fit value) (W269A panel, WT-2 (run 2)): 113
Bottom (best-fit value) (W269A panel, WT-3 (run 3)): -6.932
LogEC50 (best-fit value) (W269A panel, WT-3 (run 3)): -9.494
Span (best-fit value) (W269A panel, WT-3 (run 3)): 126.2
Top (best-fit value) (W269A panel, WT-3 (run 3)): 119.3
Span (WT (I195A set)): 93.39 and 87.67 and 121.7
Top (WT (I195A set)): 108 and 99.03 and 119.3
LogEC50 (WT (I195A set), run 1, best-fit): -8.654
LogEC50 (WT (I195A set), run 2, best-fit): -8.922
LogEC50 (WT (I195A set), run 3, best-fit): -8.801
Span (WT (I284A set)): 107.7 and 93.27 and 111.5
Top (WT (I284A set)): 108.3 and 104.9 and 129.6
LogEC50 (WT (I284A set), run 1, best-fit): -8.585
LogEC50 (WT (I284A set), run 2, best-fit): -8.622
LogEC50 (WT (I284A set), run 3, best-fit): -8.252
Span (WT (L99A set)): 106.7 and 113.8 and 111.8
Top (WT (L99A set)): 106.1 and 108 and 107.8
LogEC50 (WT (L99A set), run 1, best-fit): -8.998
LogEC50 (WT (L99A set), run 2, best-fit): -8.575
LogEC50 (WT (L99A set), run 3, best-fit): -8.63
Span (WT (T194A set)): 106.7 and 111.2 and 111
Top (WT (T194A set)): 106.1 and 108.7 and 106.2
LogEC50 (WT (T194A set), run 1, best-fit): -8.998
LogEC50 (WT (T194A set), run 2, best-fit): -8.908
LogEC50 (WT (T194A set), run 3, best-fit): -8.937
Span (WT (Y50A set)): 113.7 and 115.8 and 115.1
Top (WT (Y50A set)): 113.6 and 115.8 and 115.7
LogEC50 (WT (Y50A set), run 1, best-fit): -8.071
LogEC50 (WT (Y50A set), run 2, best-fit): -8.114
LogEC50 (WT (Y50A set), run 3, best-fit): -8.128
Span (best-fit value), cAMP inhibition [1]: 113.8 and 111.2 and 111.8 and 104.8 and 106.7
Top (best-fit value), cAMP inhibition [1]: 108.7 and 107.8 and 108 and 105.3 and 106.1
Bottom (best-fit) (WT-1, run paired with D295F): 3.567
LogEC50 (WT-1, run paired with D295F): -9.512
Span (best-fit) (WT-1, run paired with D295F): 103.1
Top (best-fit) (WT-1, run paired with D295F): 106.7
Bottom (best-fit) (WT-1, run paired with F294Y): 3.567
LogEC50 (WT-1, run paired with F294Y): -9.512
Span (best-fit) (WT-1, run paired with F294Y): 103.1
Top (best-fit) (WT-1, run paired with F294Y): 106.7
Bottom (best-fit) (WT-1, run paired with I195M): 12.84
LogEC50 (WT-1, run paired with I195M): -8.964
Span (best-fit) (WT-1, run paired with I195M): 85.7
Top (best-fit) (WT-1, run paired with I195M): 98.54
Bottom (best-fit) (WT-1, run paired with T194H): -4.818
LogEC50 (WT-1, run paired with T194H): -8.937
